System: single-round infectious reporter virus (HIV-1 envelope)
Assay: HIV-1 single-round infectious luciferase reporter virus infection of HeLa CD4 cells
Type: cell-based
Settings: Human immunodeficiency virus 1, HeLa, 72 h
Description: Cells: (virus production) human embryonic kidney cell line, 293, was propagated in Dulbecco's Modified Eagle Medium (Invitrogen, Carlsbad, Calif.) containing 10% fetal Bovine serum (FBS, Sigma, St. Louis, Mo.); (virus infection) human epithelial cell line, HeLa, expressing the HIV-1 receptor CD4 was propagated in Dulbecco's Modified Eagle Medium (Invitrogen, Carlsbad, Calif.) containing 10% fetal Bovine serum (FBS, Sigma, St. Louis, Mo.) and supplemented with 0.2 mg/mL Geneticin (Invitrogen, Carlsbad, Calif.).
Virus: single-round infectious reporter virus was produced by co-transfecting human embryonic kidney 293 cells with an HIV-1 envelope DNA expression vector and a proviral cDNA containing an envelope deletion mutation and the luciferase reporter gene inserted in place of HIV-1 nef sequences. Transfections were performed using lipofectAMINE PLUS reagent as described by the manufacturer (Invitrogen, Carlsbad, Calif.).
Experiment: HeLa CD4 cells were plated in 96 well plates at a cell density of 1×10^4 cells per well in 100 μl Dulbecco's Modified Eagle Medium containing 10 % fetal Bovine serum and incubated overnight. Compound was added in a 2 μl dimethylsulfoxide solution, so that the final assay concentration would be ≦10 μM. Single-round infectious reporter virus (100 μL) in Dulbecco's Modified Eagle Medium was then added to the plated cells and compound at an approximate multiplicity of infection (MOI) of 0.01, resulting in a final volume of 200 μl per well. Virally-infected cells were incubated at 37 degrees Celsius, in a CO2 incubator, and harvested 72 h after infection. Viral infection was monitored by measuring luciferase expression from viral DNA in the infected cells using a luciferase reporter gene assay kit, as described by the manufacturer (Roche Molecular Biochemicals, Indianapolis, Ind.). Infected cell supernatants were removed and 50 μl of lysis buffer was added per well. After 15 minutes, 50 μl of freshly-reconstituted luciferase assay reagent was added per well. Luciferase activity was then quantified by measuring luminescence using a Wallac microbeta luminescence reader.
The percent inhibition for each compound was calculated by quantifying the level of luciferase expression in cells infected in the presence of each compound as a percentage of that observed for cells infected in the absence of compound and subtracting such a determined value from 100. The effective concentration for fifty percent inhibition (EC50) was calculated with Microsoft Excel Xlfit curve fitting software. For each compound, curves were generated from percent inhibition calculated at 10 different concentrations by using a four paramenter logistic model (model 205).

| SMILES | EC50 [µM] |
| --- | --- |
| C[C@@H]1CN(C(=O)c2ccccc2)CCN1C(=O)C(C#N)c1nc2ccccc2s1 (stereo partly drawn) [Example 1, (R)-N-(benzoyl)-3-methyl-N′-[(benzothiazol-2-yl)-2-cyanoacetyl]-piperazine] | < 1 |
| C[C@@H]1CN(C(=O)c2ccccc2)CCN1C(=O)C(=O)c1nc2ccccc2s1 [Example 2, (R)-N-(benzoyl)-3-methyl-N′-[(benzothiazol-2-yl)-2-oxoacetyl]-piperazine] | < 1 |
| C[C@@H]1CN(C(=O)c2ccccc2)CCN1C(=O)C(=O)c1ccc2scnc2c1 [Example 4, (R)-N-(benzoyl)-3-methyl-N′-[(benzothiazol-5-yl)-2-oxoacetyl]piperazine] | < 1 |
| C[C@@H]1CN(C(=O)c2ccccc2)CCN1C(=O)C(=O)c1ccc2sc(-n3cccc3)nc2c1 [Example 7] | < 1 |
| C[C@@H]1CN(C(=O)c2ccccc2)CCN1C(=O)C(=O)c1ccc2sc(N)nc2c1 [Example 8] | < 1 |
